Reference: patent publication US20230227406A1, “MODULATORS OF E3 LIGASES” (Rekindle Therapeutics Inc., priority 2020, published 2023)

What was measured:
[1] = tested on: PD-L1; experiment: Western blot of PD-L1 in Hs578T cells; type: cell-based, human; conditions: 48 hours, indicated concentrations of compound
Method: Hs578T cells (human triple negative breast cancer) were treated with the indicated concentration of COMPOUND 1 for 48 hours prior to harvesting. The “0” concentration is DMSO only (0.5%, same as was used for compound doses). […] Analysis occurred via western blot using the indicated antibodies. Quantification by densitometry of the bands from the western blot are presented for PD-L1/Vinculin (loading control) in the absence of interferon gamma, and glycosylated/non-glycosylated PD-L1 in the presence of interferon gamma.
(§1) The data presented here are consistent with the previous replicate in Hs578T cells, and the observation is preserved in another TNBC cell line, BT-20. COMPOUND 1 increases PD-L1 levels and the glycosylated PD-L1/non-glycosylated PD-L1 ratio. Methods are the same as the previous replicate, using the indicated doses.
Hs578T cells (human triple negative breast cancer) were treated with the indicated concentration of COMPOUND 6 for 48 hours before harvesting. The “0” concentration is DMSO only (0.5%, same as was used for compound doses). […] Analysis occurred via western blot using the indicated antibodies. PD-L1 protein levels were reduced relative to the vinculin loading control upon compound treatment. This effect is observed in the presence and absence of interferon gamma (IFN, 25 ng/mL in cell culture media during the drug treatment).
Hs578T cells (human triple negative breast cancer) were treated with the indicated concentration of COMPOUND 7 for 48 hours prior to harvesting. The “0” concentration is DMSO only (0.5%, same as was used for compound doses). […] Analysis occurred via western blot using the indicated antibodies. PD-L1 protein levels were reduced relative to the vinculin loading control upon 319-02 treatment.
The data presented here are consistent with the previous replicate in Hs578T cells. COMPOUND 7 reduces the PD-L1/vinculin loading control ratio. Methods are the same as the previous replicate, using the indicated doses.
(§2) Hs578T cells (human triple negative breast cancer) were treated with the indicated concentration of COMPOUND 8 for 48 hours and then harvested. The “0” concentration is DMSO only (0.5%, same as was used for compound doses). […] Analysis occurred via western blot using the indicated antibodies.
PD-L1-APC (BD Biosciences) and a matched isotype control were used to visualize PD-L1 cell surface expression by flow cytometry (1:250 dilution). As shown by western blot, the knockdown of WWP1 yielded increased PD-L1 protein levels, including an increase in the glycosylated band.
Total RNA was isolated using an RNeasy kit from Qiagen.

[2] = tested on: DU-145 cells; experiment: Cellular proliferation assay (MTS) in DU-145 cells; type: cell-based; conditions: Homo sapiens, 72 hours of incubation, read-out: IC50 values for selected compounds in DU-145 cells
Method: DU-145 cells were trypsinized, counted via Trypan blue method and resuspended in DMEM complete medium (10% FBS with Pen-strep antibiotics) as described in Lieu et al, Mol Cel Endorinol, 87:19-28, 1992. Cells were seeded at a density of 100 cells per well in 1001 volume of 96-well cell culture plate and were incubated overnight at 37° C. in 5% CO2 incubator. The next day, cells were given fresh media and the test compounds were added in different concentrations. After 72 hours of incubation, MTS reagent (procured from Promega) was added to the cells and they were incubated for an additional 2 hours. Finally, the plates read in the absorbance mode at 490 nm using an ELISA plate reader (Perkin Elmer Victor X3 plate reader). The % growth values were calculated as [(T−T0)/(C−T0)]×100, where T0 is the OD of cells at the time of compound addition, C is the vehicle control, T is the OD of the test concentrations at 72 hours. Percentage inhibition values were calculated using 100−([(T−T0)/(C−T0)]×100). IC50 values were calculated in graph pad prism software using dose response curve nonlinear regression method.

[3] = tested on: phosphorylated AKT and phosphorylated Ribosomal Protein S6; experiment: Western blot of AKT and S6 phosphorylation in Hs578T cells; type: cell-based, human; conditions: 48 hours, indicated concentrations
Method: Hs578T cells (human triple negative breast cancer) were treated with the indicated concentration of COMPOUND 1 for 48 hours prior to harvesting. The “0” concentration is DMSO only (0.5%, same as was used for compound doses). […] Analysis occurred via western blot using the indicated antibodies. Quantification by densitometry of the bands from the western blot are presented for phosphorylated AKT/Total AKT and phosphorylated Ribosomal Protein S6/Total Ribosomal Protein S6. COMPOUND 1 reduced both AKT and S6 phosphorylation relative to their respective total protein levels.
as §1, with “reduces the phospho-AKT/vinculin loading control” for “increases PD-L1 levels”, “phospho-S6/total S6 ratios.” for “the glycosylated PD-L1/non-glycosylated PD-L1 ratio.”
Hs578T cells (human triple negative breast cancer) were treated with the indicated concentration of COMPOUND 6 for 48 hours prior to harvesting. The “0” concentration is DMSO only (0.5%, same as was used for compound doses). […] Analysis occurred via western blot using the indicated antibodies.
The data presented here are consistent with the previous replicate in Hs578T cells. COMPOUND 6 reduces the phospho-AKT/vinculin loading control and phospho-S6/total S6 ratios. Methods are the same as the previous replicate, using the indicated doses.
Hs578T cells (human triple negative breast cancer) were treated with the indicated concentration of COMPOUND 7 for 48 hours before harvesting. The “0” concentration is DMSO only (0.5%, same as was used for compound doses). […] Analysis occurred via western blot using the indicated antibodies.
The data presented here are consistent with the previous replicate in Hs578T cells. COMPOUND 7 reduces the phospho-S6/vinculin loading control ratio. Methods are the same as the previous replicate, using the indicated doses.
as §2

Row | IC50 [2] [µM] | Structure (SMILES) | PD-L1 levels (relative to vinculin loading control) [1] | AKT phosphorylation (relative to total AKT or vinculin loading control) [3] | S6 phosphorylation (relative to total S6 or vinculin loading control) [3] | PD-L1 glycosylation (glycosylated/non-glycosylated PD-L1 ratio) [1]
1 | 8.08 | C#CCNC(=O)c1ccc2c(Cc3c[nH]c4ccccc34)c[nH]c2c1 [Compound 6, 3-((1H-indol-3-yl)methyl)-N-(prop-2-yn-1-yl)-1H-indole-6-carboxamide] | reduced | reduces | reduces | 
2 | 13.5 | C#Cc1ccc2c(C=O)cn(-c3ccccc3)c2c1 [Compound 1, 6-ethynyl-1-phenyl-1H-indole-3-carbaldehyde] | increases | reduces | reduces | increases
3 | 5.01 | C#CCN(CCO)C(=O)c1ccc2c(Cc3c[nH]c4ccccc34)c[nH]c2c1 [Compound 7, 3-((1H-indol-3-yl)methyl)-N-(2-hydroxyethyl)-N-(prop-2-yn-1-yl)-1H-indole-6-carboxamide] | reduces | reduced | reduces | 
